Legend:
Klebsiella pneumoniae = assay: MIC of β-lactams alone or with 50 µM IDACYD against clinical isolates; type: cell-based
Experimental: Further the in-vitro inhibitory activity of IDACYDs was tested against highly resistant pathogens. […] Table 2: Collection of clinical isolates used for in-vitro evaluation

Serratia marcescens = assay: as above; type: cell-based; details: isolate EUG-815 (VIM, CMY)
Experimental: (§1) Further the in-vitro inhibitory activity of IDACYDs was tested against highly resistant pathogens. Tables 3, 4 and 5 show the effect of IDACYDs using a collection of 36 highly resistant Gram negative strains (Table 2, Kirby-Bauer disc diffusion method) producing NDM, VIM and IMP type MBLs as well as 6 isolates expressing serine beta-lactamases (ESBLs, AmpCs). […] Clinical isolates co-expressing ESBLs and/or AmpC β-lactamases along with MBLs where re-sensitized to both imipenem and meropenem, as expected. Table 2: Collection of clinical isolates used for in-vitro evaluation

Enterobacter gergoviae = assay: as above; type: cell-based
Experimental: as §1

Proteus mirabilis = assay: as above; type: cell-based
Experimental: as §1

Acinetobacter baumannii = assay: as above; type: cell-based
Experimental: as §1

Escherichia coli = assay: as above; type: cell-based
Experimental: as §1

Providencia stuartii = assay: as above; type: cell-based
Experimental: as §1

[1] = tested on: NDM-1 producing K. pneumoniae strain LA26; assay: Murine sepsis model: single dose treatment scheme-2; type: in vivo, CD-1 mice; details: single dose 10 mg/kg meropenem + 120 mg/kg β-IDACYD
Experimental: Example 9. […] Blood samples were collected at 0, 6 and 24 hours after injection of a single dose of antibiotic (4 infected animals for each timepoint), were serially diluted in normal saline (10^-1 to 10^-9) and plated on MH agar plates which were incubated for 16 hours at 37°C for determination of viable organisms. […] The resulting 3.0log10 reduction in the blood bacterial load in the presence of 120 mg/kg of the inhibitor β-IDACYD compared to the antibiotic itself confirmed the high repotentiation abilities of the inhibitor to carbapenems even for suboptimal antibiotic doses. […] Treatment was given in a form of a single shot 2h after infection and blood was drawn 0h, 6h and 24h post treatment initiation. All groups were of n=10. Error bars are indicative of SEM (n=2 replicates).

[2] = target: T1, MBL containing crude enzyme preparation (Kpn LA-26 NDM-1) (Klebsiella pneumoniae, UniProt C7C422); assay: 1H NMR monitoring of meropenem hydrolysis by MBL crude enzyme preparation; type: biochemical; details: meropenem 0.18 mM, β-IDACYD 1.9 mM, over a 12 h period
T1 construct: an MBL containing crude enzyme preparation (Kpn LA-26 NDM-1, 485 µL); endogenous in cells; host or cells: Klebsiella pneumoniae clinical strain LA-26 (crude enzyme preparation)

[3] = isolate LAR-7547 (NDM, VIM, CTXM)
[4] = isolate TZAN-59 (β-lactamase: None)

T1 sequence (C7C422 29-270 limits assumed): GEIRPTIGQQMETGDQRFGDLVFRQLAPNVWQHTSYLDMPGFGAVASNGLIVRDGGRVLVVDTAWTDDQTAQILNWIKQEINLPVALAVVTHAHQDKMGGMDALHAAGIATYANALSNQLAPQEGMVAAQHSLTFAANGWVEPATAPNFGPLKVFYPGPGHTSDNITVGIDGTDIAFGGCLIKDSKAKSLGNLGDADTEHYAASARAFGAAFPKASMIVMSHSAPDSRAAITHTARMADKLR

SMILES: CO[C@@H]1[C@@H](OC)[C@H]2O[C@H]3[C@H](OC)[C@@H](OC)[C@@H](O[C@H]4[C@H](OC)[C@@H](OC)[C@@H](O[C@H]5[C@H](OC)[C@@H](OC)[C@@H](O[C@H]6[C@H](OC)[C@@H](OC)[C@@H](O[C@H]7[C@H](OC)[C@@H](OC)[C@@H](O[C@H]8[C@H](OC)[C@@H](OC)[C@@H](O[C@@H]1[C@@H](CN(CC(=O)O)CC(=O)O)O2)O[C@@H]8CN(CC(=O)O)CC(=O)O)O[C@@H]7CN(CC(=O)O)CC(=O)O)O[C@@H]6CN(CC(=O)O)CC(=O)O)O[C@@H]5CN(CC(=O)O)CC(=O)O)O[C@@H]4CN(CC(=O)O)CC(=O)O)O[C@@H]3CN(CC(=O)O)CC(=O)O [β-IDACYD]
- Meropenem /50µM β-IDACYD MIC (Klebsiella pneumoniae; isolate LAR-2873 (VIM-12)): <0.25 µg/mL
- Ceftazidime/ 50µM β-IDACYD MIC (Klebsiella pneumoniae; isolate LAR-4011/15): 32 µg/mL
- Imipenem /50µM β-IDACYD MIC (Klebsiella pneumoniae; [3]): 4 µg/mL
- Meropenem /50µM β-IDACYD MIC (Klebsiella pneumoniae; [3]): 16 µg/mL
- Imipenem /50µM β-IDACYD MIC (Klebsiella pneumoniae; isolate SEC-2 (VIM)): 2 µg/mL
- Meropenem /50µM β-IDACYD MIC (Klebsiella pneumoniae; isolate SEC-2 (VIM)): 2 µg/mL
- Imipenem /50µM β-IDACYD MIC (Klebsiella pneumoniae; isolate SEC-4 (VIM)): 2 µg/mL
- Meropenem /50µM β-IDACYD MIC (Klebsiella pneumoniae; isolate SEC-4 (VIM)): 1 µg/mL
- Imipenem /50µM β-IDACYD MIC (Klebsiella pneumoniae; [4]): 0.5 µg/mL
- Meropenem /50µM β-IDACYD MIC (Klebsiella pneumoniae; [4]): 0.5 µg/mL
- Ceftazidime/ 50µM β-IDACYD MIC (Klebsiella pneumoniae; isolate UoA 12/227 (VIM)): <0.25 µg/mL
- Imipenem /50µM β-IDACYD MIC (Klebsiella pneumoniae; isolate UoA 12/227 (VIM)): <0.125 µg/mL
- Meropenem /50µM β-IDACYD MIC (Klebsiella pneumoniae; isolate UoA 12/227 (VIM)): <0.25 µg/mL
- Ceftazidime/ 50µM β-IDACYD MIC (Klebsiella pneumoniae; isolate UoA 1995 (VIM)): <0.25 µg/mL
- Imipenem /50µM β-IDACYD MIC (Klebsiella pneumoniae; isolate UoA 1995 (VIM)): <0.125 µg/mL
- Meropenem /50µM β-IDACYD MIC (Klebsiella pneumoniae; isolate UoA 1995 (VIM)): <0.25 µg/mL
- Ceftazidime/ 50µM β-IDACYD MIC (Serratia marcescens): <0.25 µg/mL
- Imipenem /50µM β-IDACYD MIC (Serratia marcescens): <0.125 µg/mL
- Meropenem /50µM β-IDACYD MIC (Serratia marcescens): <0.25 µg/mL
- Imipenem /50µM β-IDACYD MIC (Enterobacter gergoviae; isolate AK-5227 (VIM, CMY)): 1 µg/mL
- Meropenem /50µM β-IDACYD MIC (Enterobacter gergoviae; isolate AK-5227 (VIM, CMY)): <0.25 µg/mL
- Imipenem /50µM β-IDACYD MIC (Enterobacter gergoviae; isolate AK-5240 (VIM, CMY)): <0.125 µg/mL
- Meropenem /50µM β-IDACYD MIC (Enterobacter gergoviae; isolate AK-5240 (VIM, CMY)): <0.25 µg/mL
- Imipenem /50µM β-IDACYD MIC (Proteus mirabilis; isolate ALX-13 (VIM, VEB)): 1 µg/mL
- Meropenem /50µM β-IDACYD MIC (Proteus mirabilis; isolate ALX-13 (VIM, VEB)): 0.5 µg/mL
- Imipenem /50µM β-IDACYD MIC (Proteus mirabilis; isolate ESDY-17 (VIM, CMY)): <0.125 µg/mL
- Meropenem /50µM β-IDACYD MIC (Proteus mirabilis; isolate ESDY-17 (VIM, CMY)): <0.25 µg/mL
- Ceftazidime/ 50µM β-IDACYD MIC (Proteus mirabilis; isolate ESDY-15184 (VIM, CMY)): <0.25 µg/mL
- Imipenem /50µM β-IDACYD MIC (Proteus mirabilis; isolate ESDY-15184 (VIM, CMY)): 0.125 µg/mL
- Meropenem /50µM β-IDACYD MIC (Proteus mirabilis; isolate ESDY-15184 (VIM, CMY)): <0.25 µg/mL
- Imipenem /50µM β-IDACYD MIC (Proteus mirabilis; isolate ESDY-15315 (VIM, CMY)): <0.125 µg/mL
- Meropenem /50µM β-IDACYD MIC (Proteus mirabilis; isolate ESDY-15315 (VIM, CMY)): <0.25 µg/mL
- Imipenem /50µM β-IDACYD MIC (Acinetobacter baumannii; isolate TZAN-40 (VIM, OXA-58)): 0.25 µg/mL
- Meropenem /50µM β-IDACYD MIC (Acinetobacter baumannii; isolate TZAN-40 (VIM, OXA-58)): 2 µg/mL
- Imipenem /50µM β-IDACYD MIC (Acinetobacter baumannii; isolate TZAN-42 (VIM, OXA-58)): 2 µg/mL
- Meropenem /50µM β-IDACYD MIC (Acinetobacter baumannii; isolate TZAN-42 (VIM, OXA-58)): 8 µg/mL
- Ceftazidime/ 50µM β-IDACYD MIC (Escherichia coli; isolate TZAN-116 (VIM)): <0.25 µg/mL
- Imipenem /50µM β-IDACYD MIC (Escherichia coli; isolate TZAN-116 (VIM)): <0.125 µg/mL
- Meropenem /50µM β-IDACYD MIC (Escherichia coli; isolate TZAN-116 (VIM)): <0.25 µg/mL
- Imipenem /50µM β-IDACYD MIC (Escherichia coli; isolate TZAN-541 (VIM)): <0.125 µg/mL
- Meropenem /50µM β-IDACYD MIC (Escherichia coli; isolate TZAN-541 (VIM)): <0.25 µg/mL
- Ceftazidime/ 50µM β-IDACYD MIC (Providencia stuartii; isolate ALX- 21 (VIM, VEB)): 16 µg/mL
- Imipenem /50µM β-IDACYD MIC (Providencia stuartii; isolate ALX- 21 (VIM, VEB)): 0.25 µg/mL
- Meropenem /50µM β-IDACYD MIC (Providencia stuartii; isolate ALX- 21 (VIM, VEB)): <0.25 µg/mL
- Imipenem /50µM β-IDACYD MIC (Providencia stuartii; isolate ALX-27 (VIM)): <0.125 µg/mL
- Meropenem /50µM β-IDACYD MIC (Providencia stuartii; isolate ALX-27 (VIM)): <0.25 µg/mL
- Ceftazidime/ 50µM β-IDACYD MIC (Providencia stuartii; isolate ESDY-4559 (VIM)): <0.25 µg/mL
- Imipenem /50µM β-IDACYD MIC (Providencia stuartii; isolate ESDY-4559 (VIM)): <0.125 µg/mL
- Meropenem /50µM β-IDACYD MIC (Providencia stuartii; isolate ESDY-4559 (VIM)): <0.25 µg/mL
- Imipenem /50µM β-IDACYD MIC (Providencia stuartii; isolate ESDY-4563 (VIM, VEB)): <0.125 µg/mL
- Meropenem /50µM β-IDACYD MIC (Providencia stuartii; isolate ESDY-4563 (VIM, VEB)): <0.25 µg/mL
- reduction in the blood bacterial load compared to the antibiotic itself [1]: 3.0 log10
- mice rescued (survival) ([1]; within 48 h): 50%
- hydrolysis of meropenem in the presence of β-IDACYD [2]: no signals of hydrolysis of the drug could be observed
